According to publication PMC12757379 (Frontiers in Pharmacology, 2025):

Key:
[1] = target: T1, farnesoid X receptor (FXR) (Homo sapiens, UniProt Q96RI1); test: retention of standard on immobilized-FXR affinity column ([…]D biochromatography); type: binding
T1 construct: gene NR1H4; human FXR protein (His Tag; Cat: 17624-H07E)
T1 sequence (Q96RI1 1-486): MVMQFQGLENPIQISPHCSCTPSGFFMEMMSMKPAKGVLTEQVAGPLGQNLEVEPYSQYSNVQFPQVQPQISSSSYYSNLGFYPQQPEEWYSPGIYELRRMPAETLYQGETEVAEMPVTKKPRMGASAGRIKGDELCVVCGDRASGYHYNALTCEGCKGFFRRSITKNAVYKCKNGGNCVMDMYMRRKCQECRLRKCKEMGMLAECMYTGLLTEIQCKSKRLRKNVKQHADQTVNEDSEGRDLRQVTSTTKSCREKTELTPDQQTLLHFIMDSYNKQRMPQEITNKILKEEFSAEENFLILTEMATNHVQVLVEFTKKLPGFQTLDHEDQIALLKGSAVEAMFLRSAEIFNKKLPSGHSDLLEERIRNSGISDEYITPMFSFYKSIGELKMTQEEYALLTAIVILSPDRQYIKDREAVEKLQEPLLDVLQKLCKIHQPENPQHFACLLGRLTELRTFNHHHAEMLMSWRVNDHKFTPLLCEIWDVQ

[2] = target: T1, farnesoid X receptor (FXR); test: SPR (Biacore T200); also frontal affinity chromatography KD […]; type: binding

| Compound | retention of standard on immobilized-FXR affinity column (2D biochromatography) [1] | Kd [2] [µM] |
| --- | --- | --- |
| O=C1c2cccc(O)c2C(=O)c2c(O)cc(CO)cc21 [aloe-emodin] | emodin, physcion, aloe-emodin, and TSG exhibited distinct retentions, thereby confirming their strong binding affinities for FXR |  |
| COc1cc(O)c2c(c1)C(=O)c1cc(C)cc(O)c1C2=O [physcion] |  | 30.3 |
